Assay results reported in US10781224B2, “Bis(oxymethyl)phosphinic acid and biogenic metal salts thereof as regulators of plant growth and development” (priority 2016, dated 2020).

How the values were obtained:
[1] = system: winter wheat (Vershin variety); experiment: Winter wheat seed treatment with BHMPA salts: germinating power (length and mass of roots and sprouts); type: in vivo
How it was run: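 Seeds (50 per Petri dish on two layers of filter paper) soaked 1 h in BHMPA or its Ca, Mg, Na, Co, Mn, Cu or Zn salts at 1·10^−6-1·10^−12%, with water controls. Germination energy read on day 4, germination on day 8 (wheat) or day 7 (rice, corn), as % means of four replicates. Germinating power taken as root and sprout length plus wet and dry mass per 100 seedlings.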

rice (Diamant variety) = experiment: Rice seed treatment with BHMPA salts: germination energy and germination rate; type: in vivo
How it was run: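 Corn, winter wheat and rice seeds (50 per dish, on filter paper) were soaked for 1 h in BHMPA or its metal salts at 1·10^−6-1·10^−12%, with water as control. Germination energy was read on day 4 and germination rate on day 8 for wheat and day 7 for rice and corn, following GOST 12038-84, as the mean of four replicates.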

[2] = comparative study, 1·10^−11% solution
[3] = rice seed treatment, solution 1 · 10^−10%
[4] = seed treatment, concentration 1 · 10^−6%
[5] = seed treatment, concentration 1 · 10^−7%
[6] = seed treatment, concentration 1 · 10^−8%
[7] = seed treatment, concentration 1 · 10^−9%
[8] = seed treatment, concentration 1 · 10^−10%
[9] = seed treatment, concentration 1 · 10^−11%
[10] = seed treatment, concentration 1 · 10^−12%

O=P([O-])(CO)CO.O=P([O-])(CO)CO.[Mg+2] [Mg-salt, Magnesium BHMPA Salt]
Length, root ([1]; 1·10^−6% solution): 9.2 cm | Length, root, + % to control ([1]; 1·10^−6% solution): −1% | Length, sprout ([1]; 1·10^−6% solution): 7.1 cm | Length, sprout, + % to control ([1]; 1·10^−6% solution): −1% | Mass, dry, root ([1]; 1·10^−6% solution): 0.57 g/100 plantlings | Mass, dry, root, + % to control ([1]; 1·10^−6% solution): −2% | Mass, dry, sprout ([1]; 1·10^−6% solution): 0.65 g/100 plantlings | Mass, dry, sprout, + % to control ([1]; 1·10^−6% solution): −15% | Mass, wet, root ([1]; 1·10^−6% solution): 2.55 g/100 plantlings | Mass, wet, root, + % to control ([1]; 1·10^−6% solution): −1% | Mass, wet, sprout ([1]; 1·10^−6% solution): 5.45 g/100 plantlings | Mass, wet, sprout, + % to control ([1]; 1·10^−6% solution): −2.5% | germinating power results vs control ([1]; 1·10^−6% solution): lower than those of the control | Length, root ([1]; 1·10^−7% solution): 10.0 cm | Length, root, + % to control ([1]; 1·10^−7% solution): 7.5% | Length, sprout ([1]; 1·10^−7% solution): 7.2 cm | Length, sprout, + % to control ([1]; 1·10^−7% solution): 0% | Mass, dry, root ([1]; 1·10^−7% solution): 0.61 g/100 plantlings | Mass, dry, root, + % to control ([1]; 1·10^−7% solution): 5% | Mass, dry, sprout ([1]; 1·10^−7% solution): 0.79 g/100 plantlings | Mass, dry, sprout, + % to control ([1]; 1·10^−7% solution): 2.6% | Mass, wet, root ([1]; 1·10^−7% solution): 2.68 g/100 plantlings | Mass, wet, root, + % to control ([1]; 1·10^−7% solution): 3% | Mass, wet, sprout ([1]; 1·10^−7% solution): 5.63 g/100 plantlings | Mass, wet, sprout, + % to control ([1]; 1·10^−7% solution): 0.7% | Length, root ([1]; 1·10^−8% solution): 10.0 cm | Length, root, + % to control ([1]; 1·10^−8% solution): 7.5% | Length, sprout ([1]; 1·10^−8% solution): 7.4 cm | Length, sprout, + % to control ([1]; 1·10^−8% solution): 3% | Mass, dry, root ([1]; 1·10^−8% solution): 0.62 g/100 plantlings | Mass, dry, root, + % to control ([1]; 1·10^−8% solution): 7% | Mass, dry, sprout ([1]; 1·10^−8% solution): 0.80 g/100 plantlings | Mass, dry, sprout, + % to control ([1]; 1·10^−8% solution): 4% | Mass, wet, root ([1]; 1·10^−8% solution): 2.97 g/100 plantlings | Mass, wet, root, + % to control ([1]; 1·10^−8% solution): 15.5% | Mass, wet, sprout ([1]; 1·10^−8% solution): 5.79 g/100 plantlings | Mass, wet, sprout, + % to control ([1]; 1·10^−8% solution): 3.6% | Length, root ([1]; 1·10^−9% solution): 10.9 cm | Length, root, + % to control ([1]; 1·10^−9% solution): 17% | Length, sprout ([1]; 1·10^−9% solution): 7.5 cm | Length, sprout, + % to control ([1]; 1·10^−9% solution): 4% | Mass, dry, root ([1]; 1·10^−9% solution): 0.63 g/100 plantlings | Mass, dry, root, + % to control ([1]; 1·10^−9% solution): 8.6% | Mass, dry, sprout ([1]; 1·10^−9% solution): 0.81 g/100 plantlings | Mass, dry, sprout, + % to control ([1]; 1·10^−9% solution): 5% | Mass, wet, root ([1]; 1·10^−9% solution): 2.98 g/100 plantlings | Mass, wet, root, + % to control ([1]; 1·10^−9% solution): 16% | Mass, wet, sprout ([1]; 1·10^−9% solution): 5.81 g/100 plantlings | Mass, wet, sprout, + % to control ([1]; 1·10^−9% solution): 4% | Length, root ([1]; 1·10^−10% solution): 11.3 cm | Length, root, + % to control ([1]; 1·10^−10% solution): 21.5% | Length, sprout ([1]; 1·10^−10% solution): 7.5 cm | Length, sprout, + % to control ([1]; 1·10^−10% solution): 4% | Mass, dry, root ([1]; 1·10^−10% solution): 0.66 g/100 plantlings | Mass, dry, root, + % to control ([1]; 1·10^−10% solution): 24% | Mass, dry, sprout ([1]; 1·10^−10% solution): 0.83 g/100 plantlings | Mass, dry, sprout, + % to control ([1]; 1·10^−10% solution): 8% | Mass, wet, root ([1]; 1·10^−10% solution): 2.94 g/100 plantlings | Mass, wet, root, + % to control ([1]; 1·10^−10% solution): 14% | Mass, wet, sprout ([1]; 1·10^−10% solution): 5.84 g/100 plantlings | Mass, wet, sprout, + % to control ([1]; 1·10^−10% solution): 4.5% | Length, root ([1]; 1·10^−11% solution): 12.2 cm | Length, root, + % to control ([1]; 1·10^−11% solution): 31% | Length, sprout ([1]; 1·10^−11% solution): 7.7 cm | Length, sprout, + % to control ([1]; 1·10^−11% solution): 7% | Mass, dry, root ([1]; 1·10^−11% solution): 0.74 g/100 plantlings | Mass, dry, root, + % to control ([1]; 1·10^−11% solution): 27.5% | Mass, dry, sprout ([1]; 1·10^−11% solution): 1.07 g/100 plantlings | Mass, dry, sprout, + % to control ([1]; 1·10^−11% solution): 39% | Mass, wet, root ([1]; 1·10^−11% solution): 3.41 g/100 plantlings | Mass, wet, root, + % to control ([1]; 1·10^−11% solution): 33% | Mass, wet, sprout ([1]; 1·10^−11% solution): 5.94 g/100 plantlings | Mass, wet, sprout, + % to control ([1]; 1·10^−11% solution): 6% | Length, root ([1]; 1·10^−12% solution): 12.1 cm | Length, root, + % to control ([1]; 1·10^−12% solution): 30% | Length, sprout ([1]; 1·10^−12% solution): 7.6 cm | Length, sprout, + % to control ([1]; 1·10^−12% solution): 5.5% | Mass, dry, root ([1]; 1·10^−12% solution): 0.69 g/100 plantlings | Mass, dry, root, + % to control ([1]; 1·10^−12% solution): 19% | Mass, dry, sprout ([1]; 1·10^−12% solution): 0.84 g/100 plantlings | Mass, dry, sprout, + % to control ([1]; 1·10^−12% solution): 9% | Mass, wet, root ([1]; 1·10^−12% solution): 3.11 g/100 plantlings | Mass, wet, root, + % to control ([1]; 1·10^−12% solution): 21% | Mass, wet, sprout ([1]; 1·10^−12% solution): 5.86 g/100 plantlings | Mass, wet, sprout, + % to control ([1]; 1·10^−12% solution): 5% | Length, root [1, 2]: 10.0 cm | Length, root, + % to control [1, 2]: 15% | Length, sprout [1, 2]: 7.2 cm | Length, sprout, + % to control [1, 2]: 16% | Mass, dry, root [1, 2]: 0.69 g/100 plantlings | Mass, dry, root, + % to control [1, 2]: 11% | Mass, dry, sprout [1, 2]: 0.57 g/100 plantlings | Mass, dry, sprout, + % to control [1, 2]: 12% | Mass, wet, root [1, 2]: 5.76 g/100 plantlings | Mass, wet, root, + % to control [1, 2]: 59% | Mass, wet, sprout [1, 2]: 5.04 g/100 plantlings | Mass, wet, sprout, + % to control [1, 2]: 27% | Germination energy, % (rice (Diamant variety); [3]): 87.5% | Germination rate, % (rice (Diamant variety); [3]): 94.0% | Germination energy (rice (Diamant variety); rice, 1·10^−10% solution): 86.3% | Germination rate (rice (Diamant variety); rice, 1·10^−10% solution): 92.7% | Germination energy (rice (Diamant variety); [4]): 77.7% | Germination rate (rice (Diamant variety); [4]): 83.3% | Germination energy (rice (Diamant variety); [5]): 80.3% | Germination rate (rice (Diamant variety); [5]): 85.0% | Germination energy (rice (Diamant variety); [6]): 81.7% | Germination rate (rice (Diamant variety); [6]): 87.3% | Germination energy (rice (Diamant variety); [7]): 84.3% | Germination rate (rice (Diamant variety); [7]): 90.7% | Germination energy (rice (Diamant variety); [8]): 86.3% | Germination rate (rice (Diamant variety); [8]): 92.7% | Germination energy (rice (Diamant variety); [9]): 83.3% | Germination rate (rice (Diamant variety); [9]): 89.3% | Germination energy (rice (Diamant variety); [10]): 79.3% | Germination rate (rice (Diamant variety); [10]): 84.7%
